This note sets out measurements from patent publication US8883801B2, “Substituted pyrazolo[1,5-a]pyrimidines as mTOR inhibitors” (Merck Sharp & Dohme Corp., priority 2010, dated 2014).

The structures appear in SMILES notation.

The subject of assay [1] is mTORC1 activity: phosphorylated 4E-BP1 Thr37/46 (p4E-BP1 Thr37/46) in PC3 cells. The assay is described as follows: mTOR target engagement assay, immunofluorescent cell-based, mTORC1 readout. As to conditions: Homo sapiens, PC-3, 1.5 h, rated class, 90 min treatment, read-out: P4EBP1 IC50. Summed up: (§1)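 Read-out is immunofluorescence intensity, normalized to DMSO-only wells and fitted to a sigmoidal Hill equation for IC50. The mTORC1 arm probes phospho-4E-BP1 Thr37/46 and the mTORC2 arm phospho-AKT Ser473.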

The next assay addresses human mTOR enzyme (Homo sapiens, UniProt P42345). The assay is described as follows: HTRF mTOR enzyme (kinase) assay. The assay is classed as biochemical. As to conditions: rated class; 5 μM ATP, 0.2 μM GST-S6K; read-out: hMTOR IC50.
The subject of assay [2] is mTORC2 activity: phosphorylated AKT Ser473 (pAKT S473) in PC3 cells. Kind of assay: mTOR target engagement assay, immunofluorescent cell-based, mTORC2 readout. The conditions noted are these: Homo sapiens, PC-3, 1.5 h, rated class, 90 min treatment. Summed up: as §1

Sequence of human mTOR enzyme (P42345 1360-2549 limits assumed): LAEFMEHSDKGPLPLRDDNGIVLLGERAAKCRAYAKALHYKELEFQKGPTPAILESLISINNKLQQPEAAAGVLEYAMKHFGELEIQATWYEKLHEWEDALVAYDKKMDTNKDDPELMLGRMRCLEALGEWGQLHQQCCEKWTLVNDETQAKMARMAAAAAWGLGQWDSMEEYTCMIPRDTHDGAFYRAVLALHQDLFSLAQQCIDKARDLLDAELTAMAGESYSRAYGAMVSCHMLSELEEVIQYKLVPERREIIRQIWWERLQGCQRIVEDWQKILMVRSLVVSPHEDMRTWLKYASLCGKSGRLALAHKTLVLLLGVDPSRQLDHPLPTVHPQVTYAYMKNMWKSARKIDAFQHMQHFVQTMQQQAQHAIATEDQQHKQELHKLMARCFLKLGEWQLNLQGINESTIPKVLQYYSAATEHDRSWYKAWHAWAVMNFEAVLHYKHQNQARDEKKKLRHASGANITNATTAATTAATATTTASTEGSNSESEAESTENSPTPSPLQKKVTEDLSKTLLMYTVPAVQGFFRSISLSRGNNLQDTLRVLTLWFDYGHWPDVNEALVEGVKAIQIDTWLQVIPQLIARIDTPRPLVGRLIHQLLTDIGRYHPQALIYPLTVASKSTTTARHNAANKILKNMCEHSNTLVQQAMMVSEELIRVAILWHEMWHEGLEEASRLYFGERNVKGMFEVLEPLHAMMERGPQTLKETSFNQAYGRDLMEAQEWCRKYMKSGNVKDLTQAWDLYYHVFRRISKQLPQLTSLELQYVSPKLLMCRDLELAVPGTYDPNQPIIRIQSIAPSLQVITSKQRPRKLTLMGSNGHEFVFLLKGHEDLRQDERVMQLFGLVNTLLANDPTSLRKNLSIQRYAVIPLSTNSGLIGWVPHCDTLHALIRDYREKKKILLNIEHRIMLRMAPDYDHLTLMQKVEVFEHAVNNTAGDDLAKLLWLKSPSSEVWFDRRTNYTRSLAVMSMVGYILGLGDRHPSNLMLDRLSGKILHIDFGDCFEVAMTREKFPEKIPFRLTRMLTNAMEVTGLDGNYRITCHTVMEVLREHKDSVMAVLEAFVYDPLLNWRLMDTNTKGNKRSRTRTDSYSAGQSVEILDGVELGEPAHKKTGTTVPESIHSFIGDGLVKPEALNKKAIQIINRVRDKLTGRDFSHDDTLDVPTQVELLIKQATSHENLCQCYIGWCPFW

What is called IC50 is the point on the concentration scale where inhibition reaches its midpoint. `CC(=O)c1c(C2CCC(O)(CO)CC2)nc2c(-c3cnc(-c4ccccc4)nc3)cnn2c1N` (stereo not drawn) [Compound 158, 1-(7-amino-5-(4-hydroxy-4-(hydroxymethyl)-cyclohexyl)-3-(2-phenylpyrimidin-5-yl)pyrazolo[1,5-a]pyrimidin-6-yl)ethanone]: the half-maximal inhibitory concentration (IC50) is 100 to 1000 nM in assay [1], 1 to 100 nM on human mTOR enzyme and 100 to 1000 nM in assay [2].
Consider `CO[C@]1(C(=O)O)CC[C@H](c2nc3c(-c4cnn(-c5ccccc5)c4)cnn3c(N)c2C(C)=O)CC1` [Compound 37, (1S,4S)-4-(6-acetyl-7-amino-3-(1-phenyl-1H-pyrazol-4-yl)pyrazolo[1,5-a]pyrimidin-5-yl)-1-methoxycyclohexane-carboxylic acid], for which the concentration for half-maximal inhibition (IC50) in assay [1] lay within 100 to 1000 nM; at human mTOR enzyme, 1 to 100 nM; in assay [2] it was 1 to 100 nM.
Consider `COCCO[C@]1(C(=O)NCCO)CC[C@@H](c2nc3c(-c4cnn(-c5ccccc5)c4)cnn3c(N)c2S(C)(=O)=O)CC1` [Compound 92, (1R,4R)-4-(7-amino-6-(methylsulfonyl)-3-(1-phenyl-1H-pyrazol-4-yl)pyrazolo[1,5-a]pyrimidin-5-yl)-N-(2-hydroxyethyl)-1-(2-methoxyethoxy)-cyclohexane-carboxamide], for which the IC50 in assay [1] lay within 100 to 1000 nM; on human mTOR enzyme, 1 to 100 nM; in assay [2], 1 to 100 nM.
With `CO[C@]1(C(=O)O)CC[C@H](c2nc3c(-c4cnn(-c5ccccc5)c4)cnn3c(N)c2Br)CC1` [Compound 31, (1S,4S)-4-(7-amino-6-bromo-3-(1-phenyl-1H-pyrazol-4-yl)pyrazolo[1,5-a]pyrimidin-5-yl)-1-methoxycyclohexane-carboxylic acid], the concentration for half-maximal inhibition (IC50) in assay [1] fell in the range of 100 to 1000 nM; at human mTOR enzyme, 1 to 100 nM; in assay [2], 1 to 100 nM.
`COCCO[C@]1(C(N)=O)CC[C@@H](c2nc3c(-c4ccc(-c5ncc[nH]5)nc4)cnn3c(N)c2S(C)(=O)=O)CC1` [Compound 116]: the IC50 fell in the range of 1 to 100 nM in assay [1], 1 to 100 nM at human mTOR enzyme and 100 to 1000 nM in assay [2].
Turning to `COCCO[C@]1(C(=O)O)CC[C@@H](c2nc3c(-c4cnn(-c5ccccc5)c4)cnn3c(N)c2S(C)(=O)=O)CC1` [Compound 40, (1R,4R)-4-(7-amino-6-(methylsulfonyl)-3-(1-phenyl-1H-pyrazol-4-yl)pyrazolo[1,5-a]pyrimidin-5-yl)-1-(2-methoxyethoxy)cyclohexanecarboxylic acid], the IC50 was 100 to 1000 nM in assay [1], 1 to 100 nM at human mTOR enzyme and 1 to 100 nM in assay [2].
Take `COCCO[C@]1(C(=O)O)CC[C@@H](c2nc3c(-c4cnc5ccc(F)cc5c4)cnn3c(N)c2S(C)(=O)=O)CC1` [Compound 52, (1R,4R)-4-(7-amino-3-(6-fluoroquinolin-3-yl)-6-(methylsulfonyl)-pyrazolo[1,5-a]-pyrimidin-5-yl)-1-(2-methoxyethoxy)-cyclohexanecarboxylic acid]: the 50% inhibitory concentration (IC50) in assay [1] is 100 to 1000 nM; at human mTOR enzyme it was 1 to 100 nM; in assay [2], 100 to 1000 nM.
With `Nc1c(Br)c([C@H]2CC[C@@](OCCN3CCOCC3)(C(=O)O)CC2)nc2c(-c3cnn(-c4ccccc4)c3)cnn12` [Compound 67, (1R,4R)-4-(7-amino-6-bromo-3-(1-phenyl-1H-pyrazol-4-yl)pyrazolo[1,5-a]pyrimidin-5-yl)-1-(2-morpholinoethoxy) cyclohexanecarboxylic acid], the 50% inhibitory concentration (IC50) in assay [1] is 100 to 1000 nM; at human mTOR enzyme it was 1 to 100 nM; in assay [2], 100 to 1000 nM.
For `COCCO[C@]1(C(=O)O)CC[C@@H](c2nc3c(-c4ccc(-c5ccn(C)n5)nc4)cnn3c(N)c2S(C)(=O)=O)CC1` [Compound 42, (1R,4R)-4-(7-amino-3-(6-(1-methyl-1H-pyrazol-3-yl)pyridin-3-yl)-6-(methylsulfonyl)-pyrazolo[1,5-a]-pyrimidin-5-yl)-1-(2-methoxyethoxy)-cyclohexanecarboxylic acid], the IC50 was 5000 to 15000 nM in assay [1], 1 to 100 nM on human mTOR enzyme and 2000 to 5000 nM in assay [2].
Consider `COCCO[C@]1(C(=O)O)CC[C@H](c2nc3c(-c4cnn(-c5ccccc5)c4)cnn3c(N)c2S(C)(=O)=O)CC1` [Compound 41, (1S,4S)-4-(7-amino-6-(methylsulfonyl)-3-(1-phenyl-1H-pyrazol-4-yl)pyrazolo[1,5-a]pyrimidin-5-yl)-1-(2-methoxyethoxy)-cyclohexanecarboxylic acid], for which the IC50 in assay [1] is 5000 to 15000 nM; at human mTOR enzyme, 1 to 100 nM; in assay [2], 5000 to 15000 nM.
For `CC(=O)c1c(N)n2ncc(-c3ccc(-c4ccccc4)nc3)c2nc1[C@H]1CC[C@](O)(CO)CC1` [Compound 140, 1-(7-amino-5-((1S,4S)-4-hydroxy-4-(hydroxymethyl)cyclohexyl)-3-(6-phenylpyridin-3-yl)pyrazolo[1,5-a]pyrimidin-6-yl)ethanone], the IC50 in assay [1] was 100 to 1000 nM; on human mTOR enzyme it was 1 to 100 nM; in assay [2], 1 to 100 nM.
Turning to `CC(=O)c1c(N)n2ncc(-c3ccc(-c4ccccc4)nc3)c2nc1[C@H]1CC[C@](C)(C(=O)O)CC1` [Compound 15, (1R,4R)-4-(6-acetyl-7-amino-3-(6-phenylpyridin-3-yl)pyrazolo[1,5-a]pyrimidin-5-yl)-1-methylcyclohexanecarboxylic acid], the half-maximal inhibitory concentration (IC50) was in the range of 100 to 1000 nM in assay [1], 1 to 100 nM at human mTOR enzyme and 100 to 1000 nM in assay [2].
As for `COCCO[C@]1(C(=O)NOC)CC[C@@H](c2nc3c(-c4ccc(-c5ccccc5)nc4)cnn3c(N)c2C(C)=O)CC1` [Compound 103, (1R,4R)-4-(6-acetyl-7-amino-3-(6-phenylpyridin-3-yl)pyrazolo[1,5-a]pyrimidin-5-yl)-N-methoxy-1-(2-methoxyethoxy)-cyclohexane-carboxamide], the IC50 in assay [1] lay within 100 to 1000 nM; at human mTOR enzyme it was 1 to 100 nM; in assay [2], 100 to 1000 nM.
As to `COCCO[C@]1(C(N)=O)CC[C@@H](c2nc3c(-c4ccc(-c5ncc[nH]5)nc4)cnn3c(N)c2C(C)=O)CC1` [Compound 112, (1R,4R)-4-(3-(6-(1H-imidazol-2-yl)pyridin-3-yl)-6-acetyl-7-aminopyrazolo[1,5-a]pyrimidin-5-yl)-1-(2-methoxyethoxy)cyclohexanecarboxamide], the IC50 (in assay [1]; at human mTOR enzyme; in assay [2]) was 1 to 100 nM throughout.
`C[C@]1(C(=O)O)CC[C@H](c2nc3c(-c4ccc(-c5ccccc5)nc4)cnn3c(N)c2C#N)CC1` [Compound 25, (1R,4R)-4-(7-amino-6-cyano-3-(6-phenylpyridin-3-yl)pyrazolo[1,5-a]pyrimidin-5-yl)-1-methylcyclohexanecarboxylic acid]: the IC50 in assay [1] lay within 100 to 1000 nM; at human mTOR enzyme, 1 to 100 nM; in assay [2] it was 100 to 1000 nM.
